Experimental data as given in patent publication US20230277508A1, “USE OF COMPOUND AS CYP2E1 INHIBITOR” (SHANGHAI LING XI BIOTECHNOLOGY DEVELOPMENT CO., LTD., priority 2020, published 2023).

Test system: LPS-induced sepsis in mice
Test: LPS-induced mouse sepsis model
Format: in vivo
Settings: vs model group
Procedure: Mice: A mouse sepsis model was constructed through single intraperitoneal injection of LPS (15 mg/kg). 30 min before LPS administration, mice in the model group were administered with NS (0.5 mL/kg, i.g.), mice in the positive control group were administered with celecoxib (5 mg/kg, i.g.), and mice in the CYP2E1 inhibition group were administered with the compound SMI0 (90 mg/kg, i.g.). A body temperature of each mouse was measured and recorded at 6 h, 12 h, and 24 h after LPS administration, and the body temperature was measured […] in total throughout the experimental process. The animals were sacrificed at 24 h, blood samples were collected, and renal and cardiac function-associated indexes were determined (control group, n=8 mice; model group, n=8 mice; celecoxib group, n=8 mice; and SMI0 compound group, n=10 mice).

SMILES: CC(=O)c1scnc1C [SMI0]
- decrease in body temperature in the LPS-induced sepsis mouse model (SMI0 90 mg/kg ig 30 min before LPS 15 mg/kg ip, 6 h, 12 h, 24 h): avoided
- levels of renal and cardiac function-associated indexes (urea nitrogen, creatinine, CK, LDH) (serum at 24 h, SMI0 90 mg/kg ig): significantly reduced
